The text below walks through data of patent publication US5523314A, “Compounds useful as hypoglycemic agents and for treating Alzheimer's disease” (priority 1994, dated 1996).

Where a name gives a salt, the structure may show the parent alone. Read-outs that look alike come from different tables or passages of the source.

The test system of this test is blood glucose level. Kind of test: Hypoglycemic activity in obese diabetic mice (Table 1). As to conditions: for response vs control in vivo at 50 mg/kg / response vs control in vivo at 100 mg/kg: Mus musculus, ip; for ability to lower blood glucose levels in mammals: compared to structurally similar compounds known in the art, in words. Format: in vivo, male viable yellow obese-diabetic mice. The procedure:
The hypoglycemic activity of the compounds of the present invention was determined by testing the efficacy of the compounds in vivo in male viable yellow obese-diabetic mice. The test procedure is described in detail below.
Test formulations were prepared by dissolving the test compound in a saline solution containing 2% Emulphor (a polyoxyethylated vegetable oil surfactant from GAP Corp.) to provide the dose level desired. Each test formulation was administered to six viable yellow obese-diabetic mice intraperitoneally at the beginning of the experiment. Blood glucose levels were determined immediately before the first dose and at 2 and 4 hours thereafter using glucose oxidase. A mean was taken of the 6 values obtained before the first dose and at the 2 and 4 hour intervals. In Table 1, Column 1 provides the example number of the test compound, Column 2 provides the dose level of compound tested, and Columns 3 and 4 provide a measurement of the test animal's blood glucose level 2 and 4 hours after test compound administration, respectively, as a percentage of the test animal' s pre-administration blood glucose level.

The mark [1] stands for this setting: 2 h, 50 mg/kg, intraperitoneal, 2 hrs, read-out: Percent of Initial Blood Glucose Level After 2 hrs.
The mark [2] stands for this setting: 4 h, 50 mg/kg, intraperitoneal, 4 hrs, read-out: Percent of Initial Blood Glucose Level After 4 hrs.
The mark [3] stands for this setting: 50 mg/kg, intraperitoneal, 2 hrs.
Setting [4] is: 50 mg/kg, intraperitoneal, 4 hrs.

As for `O=C1NC(=S)SC1=Cc1ccc2c(c1)OCO2` [Example 2, 5-[(1,3-benzodioxol-5-yl)methylene]-2-thioxo-4-thiazolidinone], the response vs control in vivo at 50 mg/kg was determined as 96 ± 1% under setting [1] and 82 ± 3% under setting [2].
In the case of `O=C1NC(=S)SC1=Cc1cccc(O)c1` [Example 11, 5-[(3-hydroxyphenyl)methylene]-2-thioxo-4-thiazolidinone], the response vs control in vivo at 50 mg/kg reads like this: under setting [1], 84 ± 3%; under setting [2], 85 ± 6%.
For `CCCOc1ccc(C=C2SC(=S)NC2=O)cc1OCCC` [Example 51, 5-[(3,4-dipropoxyphenyl)methylene]-2-thioxo-4-thiazolidinone] the same measures were 89 ± 7% and 85 ± 8%.
`O=C1NC(=S)SC1=Cc1cccc([N+](=O)[O-])c1` [Example 10, 5-[(3-nitrophenyl)methylene]-2-thioxo-4-thiazolidinone]: the response vs control in vivo at 50 mg/kg is, setting by setting: under setting [1], 89 ± 4%; under setting [2], 80 ± 4%.
Regarding `O=C1NC(=S)SC1=Cc1ccccc1-c1ccccc1` [Example 29, 5-[[(1,1'-biphenyl)-2-yl]methylene]-2-thioxo-4-thiazolidinone], the response vs control in vivo at 50 mg/kg runs as follows: under setting [1], 84 ± 5%; under setting [2], 77 ± 6%.
For `CCOc1ccc(C=C2SC(=S)NC2=O)cc1O` [Example 46, 5-[(3-hydroxy-4-ethoxyphenyl)methylene]-2-thioxo-4-thiazolidinone] the same measures were 79 ± 4% and 77 ± 5%.
Turning to `O=C1NC(=S)SC1=Cc1ccc(C(=O)O)cc1` [Example 37, 4-[(2-thioxo-4-thiazolidinone)methylene]benzoic acid], the response vs control in vivo at 50 mg/kg worked out at 89 ± 4% under setting [1] and 80 ± 4% under setting [2].
As to `C=CCN1C(=O)C(=Cc2ccc(O)c(OC)c2)SC1=S` [Example 30, 5-[(3-methoxy-4-hydroxyphenyl)methylene]-3-(2-propenyl)-2-thioxo-4-thiazolidinone], the response vs control in vivo at 50 mg/kg reads like this: under setting [1], 78 ± 7%; under setting [2], 81 ± 5%.
For the molecule `O=C1NC(=S)SC1=Cc1ccc(F)cc1` [Example 13, 5-[(4-fluorophenyl)methylene]-2-thioxo-4-thiazolidinone], the response vs control in vivo at 50 mg/kg came out at 94 ± 4% under setting [1] and 88 ± 5% under setting [2].
For the molecule `Cc1cccc(C=C2SC(=S)NC2=O)c1` [Example 33, 5-[(3-methylphenyl)methylene]-2-thioxo-4-thiazolidinone], the response vs control in vivo at 50 mg/kg by setting is: under setting [1], 91 ± 6%; under setting [2], 86 ± 7%.
Regarding `CC(=C1SC(=S)NC1=O)c1cccc(O)c1` [Example 44, 5-[(3-hydroxyphenyl)methylmethylene]-2-thioxo-4-thiazolidinone], the “Percent of Initial Blood Glucose Level After 2 hrs.” value under setting [3] is listed as 98 ± 4%. Under setting [4], the “Percent of Initial Blood Glucose Level After 4 hrs.” value came to 88 ± 5%.
For `O=C1NC(=S)SC1=Cc1ccc(Cl)c(Cl)c1` [Example 36, 5-[(3,4-dichlorophenyl)methylene]-2-thioxo-4-thiazolidinone], the response vs control in vivo at 50 mg/kg turned out to be 81 ± 7% under setting [1] and 90 ± 8% under setting [2].
Consider `CC(C)(C)c1cc(C=C2SC(=S)N(CC(=O)O)C2=O)cc(C(C)(C)C)c1O` [Example 53, 5-[[3,5-bis(1,1-dimethylethyl)-4-hydroxyphenyl]methylene]-4-oxo-2-thioxo-3-thiazolidine acetic acid], for which the “ability to lower blood glucose levels in mammals” value is listed as “surprising ability to lower blood glucose levels in mammals”. In addition, the response vs control in vivo at 50 mg/kg under setting [1] is 73 ± 4%. Also, under “2 h, intraperitoneal, 2 hrs, read-out: Percent of Initial Blood Glucose Level After 2 hrs.”, the response vs control in vivo at 100 mg/kg was 83 ± 9%. The response vs control in vivo at 50 mg/kg under setting [2] was found to be 55 ± 5%. The response vs control in vivo at 100 mg/kg (4 h, intraperitoneal, 4 hrs, read-out: Percent of Initial Blood Glucose Level After 4 hrs.) is 80 ± 14%.
Take `COc1ccc(C=C2SC(=S)NC2=O)cc1O` [Example 40, 5-[(3-hydroxy-4-methoxyphenyl)methylene]-2-thioxo-4-thiazolidinone]: the response vs control in vivo at 50 mg/kg by setting is: under setting [1], 78 ± 5%; under setting [2], 72 ± 4%.
Turning to `O=C1NC(=S)SC1=Cc1cccc(Cl)c1` [Example 23, 5-[(3-chlorophenyl)methylene]-2-thioxo-4-thiazolidinone], the response vs control in vivo at 50 mg/kg under setting [1] stood at 74 ± 6% and the response vs control in vivo at 50 mg/kg under setting [2] was 90 ± 6%.
Turning to `CCCCOc1ccc(C=C2SC(=S)NC2=O)cc1OC` [Example 52, 5-[(3-methoxy-4-butoxyphenyl)methylene]-2-thioxo-4-thiazolidinone, sodium salt], the response vs control in vivo at 50 mg/kg (4 h, read-out: Percent of Initial Blood Glucose Level After 4 hrs., 50 mg/kg, intraperitoneal, 4 hrs) came out at 61 ± 4%.
Take `CCC(C)c1cc(C=C2SC(=S)N(CC(=O)O)C2=O)cc(C(C)CC)c1O` (stereo not drawn) [Example 59, 5-[[3,5-bis(1-methylpropyl)-4-hydroxyphenyl]methylene]-4-oxo-2-thioxo-3-thiazolidine acetic acid]: the “ability to lower blood glucose levels in mammals” value was “surprising ability to lower blood glucose levels in mammals”. Further, the response vs control in vivo at 50 mg/kg under setting [1] was determined as 62 ± 5%. The response vs control in vivo at 50 mg/kg under setting [2] worked out at 59 ± 9%.
`CCCCOc1ccc(CC2SC(=S)NC2=O)cc1OC` (stereo not drawn) [Example 54, 5-[(3-methoxy-4-butoxyphenyl)methyl]-2-thioxo-4-thiazolidinone]: the response vs control in vivo at 50 mg/kg stood at 76 ± 7% under setting [1] and 74 ± 6% under setting [2].
Take `O=C1NC(=S)SC1=Cc1cccs1` [Example 14, 5-[(2-thienyl)methylene]-2-thioxo-4-thiazolidinone]: the response vs control in vivo at 50 mg/kg is, setting by setting: under setting [1], 84 ± 7%; under setting [2], 71 ± 8%.
For `O=C1NC(=S)SC1=Cc1ccc([N+](=O)[O-])c(O)c1` [Example 43, 5-[(3-hydroxy-4-nitrophenyl)methylene]-2-thioxo-4-thiazolidinone] the same measures were 92 ± 7% and 88 ± 4%.
Regarding `CCCCOc1ccc(C=C2SC(=S)NC2=O)cc1` [5-[(4-butoxyphenyl)methylene]-2-thioxo-4-thiazolidinone], the “ability to lower blood glucose levels in mammals” value is “surprising ability to lower blood glucose levels in mammals”.
In the case of `COc1cc(C(C)=C2SC(=S)NC2=O)cc(OC)c1OC` [Example 19, 5-[(3,4,5-trimethoxyphenyl)methylmethylene]-2-thioxo-4-thiazolidinone], the “Percent of Initial Blood Glucose Level After 2 hrs.” value under setting [3] stood at 85 ± 14%. In addition, the “Percent of Initial Blood Glucose Level After 4 hrs.” value under setting [4] came to 75 ± 4%.
For the molecule `O=C1NC(=S)SC1=Cc1ccnc2ccccc12` [Example 3, 5-[(4-quinolinyl)methylene]-2-thioxo-4-thiazolidinone], the response vs control in vivo at 50 mg/kg runs as follows: under setting [1], 90 ± 10%; under setting [2], 73 ± 3%.
As for `COc1ccc(C=C2SC(=S)NC2=O)c(OC)c1` [Example 12, 5-[(2,4-dimethoxyphenyl)methylene]-2-thioxo-4-thiazolidinone], the response vs control in vivo at 50 mg/kg runs as follows: under setting [1], 90 ± 7%; under setting [2], 69 ± 6%.
For the molecule `COc1ccc(C=C2SC(=S)NC2=O)cc1C` [Example 27, 5-[(3-methyl-4-methoxyphenyl)methylene]-2-thioxo-4-thiazolidinone], the response vs control in vivo at 50 mg/kg amounted to 93 ± 3% under setting [1] and 84 ± 6% under setting [2].
As to `COc1cc(C=C2SC(=S)NC2=O)ccc1O` [Example 20, 5-[(3-methoxy-4-hydroxyphenyl)methylene]-2-thioxo-4-thiazolidinone], the response vs control in vivo at 50 mg/kg under setting [1] came out at 76 ± 3% and the response vs control in vivo at 50 mg/kg under setting [2] came to 70 ± 5%.
For the molecule `O=C1NC(=S)SC1=Cc1c[nH]c2ccccc12` [Example 39, 5-[(1H-indol-3-yl)methylene]-2-thioxo-4-thiazolidinone], the response vs control in vivo at 50 mg/kg reads like this: under setting [1], 83 ± 4%; under setting [2], 76 ± 4%.
For `O=C1NC(=S)SC1=Cc1ccccc1O` [Example 7, 5-[(2-hydroxyphenyl)methylene]-2-thioxo-4-thiazolidinone], the response vs control in vivo at 50 mg/kg runs as follows: under setting [1], 80 ± 4%; under setting [2], 91 ± 7%.
As for `O=C1NC(=S)SC1=Cc1ccccc1[N+](=O)[O-]` [Example 9, 5-[(2-nitrophenyl)methylene]-2-thioxo-4-thiazolidinone], the response vs control in vivo at 50 mg/kg by setting is: under setting [1], 91 ± 8%; under setting [2], 83 ± 6%.
